These results are taken from patent US10208056B2, “Condensed tricyclic compounds as protein kinase inhibitors” (FUNDACIÓN DEL SECTOR PÚBLICO ESTATAL CENTRO NACIONAL DE …, priority 2015, dated 2019).

The assay concerns HCT116. Description: Combination assay, HCT116. The class given is cell-based. In a few lines: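 Cells treated with example compounds combined with chemotherapeutic agents, proliferation read by CellTiter-Glo. Combination index from the Chou–Talalay method (CI <0.8 synergy, 0.8–1.2 additivity, >1.2 antagonism); EC50 of the combination also derived alongside single-agent EC50s.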

The mark [1] stands for this setting: HCT116, combination with Alisertib.
[2] abbreviates: HCT116, combination with Crizotinib.

What is called GI50 is the concentration that inhibits growth by half. On to `CCn1c(C(N)=O)cc2c1-c1ccncc1OC2(C)C` [Example 43], for which the “Combination index (CI)” value under setting [1] is reported as 0.64; the “Combination index (CI)” value under setting [2] is recorded as 0.58; the “Combination index (CI)” value (HCT116, combination with Taxol) was determined as 0.63. Besides, the Synergy result is listed as “++ (0.3 < CI < 0.7 (++))” under setting [1]; “++ (0.3 < CI < 0.7 (++))” under setting [2]; “++ (0.3 < CI < 0.7 (++))” (HCT116, combination with Taxol). Further, the GI50 (Homo sapiens, HCT-116, HCT116, example compound alone, read-out: CDK8 inh GI50) is 5 µM.
